The source made the active and inactive calls. The calls are words filed in the database; no cut-off is given here. Some results are limits rather than exact numbers.

One assay has as its system A549. Put plainly: Cytotoxicity against human A549 cells assessed as inhibition of cell growth incubated for 72 hrs by CCK-8 assay. The assay is classed as functional, cell-based. The settings on record: A549, 72 h.
A further assay has as its system Caco-2. Briefly: Cytotoxicity against human Caco-2 cells assessed as inhibition of cell growth incubated for 72 hrs by CCK-8 assay. The assay is classed as functional, cell-based. As to conditions: Caco-2, 72 h.
In a further assay the test system is Aspergillus ochraceus. Briefly: Antimicrobial activity against Aspergillus ochraceus AS3.3876 incubated for 24 hrs by absorbance based analysis. The assay is classed as functional, organism-based.
Another assay has as its system Escherichia coli. Briefly: Antimicrobial activity against Escherichia coli DH5alpha incubated for 24 hrs by absorbance based analysis. The assay is classed as functional, organism-based.
The test system of a further assay is HepG2. Put plainly: Cytotoxicity against human HepG2 cells assessed as inhibition of cell growth incubated for 72 hrs by CCK-8 assay. The assay is classed as functional, cell-based. As to conditions: HepG2, 72 h.
The test system of the next assay is Aspergillus flavus. Briefly: Antimicrobial activity against Aspergillus flavus AS3.3950 incubated for 24 hrs by absorbance based analysis. The assay is classed as functional, organism-based.
The next assay relates to Saccharomyces cerevisiae. Briefly: Antimicrobial activity against Saccharomyces cerevisiae AS2.399 incubated for 24 hrs by absorbance based analysis. The assay is classed as functional, organism-based.
A further assay concerns Staphylococcus aureus. Put plainly: Antimicrobial activity against Staphylococcus aureus ATCC 29213 incubated for 24 hrs by absorbance based analysis. The assay is classed as functional, organism-based.
In another assay the test system is Aspergillus cristatus. Put plainly: Antimicrobial activity against Aspergillus cristatus CB10002 incubated for 24 hrs by absorbance based analysis. The assay is classed as functional, organism-based.
Another assay concerns MDA-MB-231. Put plainly: Cytotoxicity against human MDA-MB-231 cells assessed as inhibition of cell growth incubated for 72 hrs by CCK-8 assay. The assay is classed as functional, cell-based. As to conditions: MDA-MB-231, 72 h.

For `CCCCCCCCCCCCC(=O)O` [TRIDECANOATE], the half-inhibitory concentration (IC50) in the assay on A549 is 250 µM; in the assay on Caco-2, 280 µM.
In the case of `Cc1ccccc1/C=C/CCCCCCCCCCC(=O)O`, the outcome with Aspergillus ochraceus, in the assay with Escherichia coli, in the assay on Aspergillus flavus, in the assay with Saccharomyces cerevisiae, in the assay with Staphylococcus aureus and in the assay on Aspergillus cristatus was inactive. The half-maximal inhibitory concentration (IC50) was 0.35 µM in the assay with A549, 2.2 µM with HepG2, 4.6 µM in the assay on Caco-2 and 0.45 µM in the assay on MDA-MB-231.
For the compound `CCCCCCCCCCCCCC(=O)O` [MYRISTIC ACID], the half-inhibitory concentration (IC50) was 200 µM in the assay with A549 and greater than 1000 µM with Caco-2.
`C=CCCCCCCCCCCC(=O)O`: the half-maximal inhibitory concentration (IC50) with A549 was determined as 120 µM; with Caco-2, 140 µM.
With `CCCC/C=C\CCCCCCCC(=O)O` [MYRISTOLEIC ACID], the half-inhibitory concentration (IC50) in the assay on A549 and in the assay with Caco-2 was 270 µM each time.
In the case of `Cc1ccccc1/C=C/CCC(=O)O`, the result in the assay on Aspergillus ochraceus, with Escherichia coli, with Aspergillus flavus, in the assay on Saccharomyces cerevisiae, with Staphylococcus aureus and in the assay with Aspergillus cristatus was inactive. Also, the IC50 is 64 µM with A549, 740 µM with HepG2, greater than 1000 µM with Caco-2 and 190 µM with MDA-MB-231.
